Laboratory results from ChEMBL document CHEMBL1142500, “'Reverse' alpha-ketoamide-based p38 MAP kinase inhibitors” (Bioorg Med Chem Lett, 2008).

Legend:
THP-1 = assay: Inhibition of LPS-induced TNFalpha production in human THP1 cells; format: functional, cell-based
[1] = molecular target: T1, Mitogen-activated protein kinase 14 (Homo sapiens, UniProt Q16539); assay: Inhibition of human p38alpha
[2] = molecular target: T1, Mitogen-activated protein kinase 14; assay: Inhibition of human p38alpha phosphorylation
[3] = Tmax in rat at 30 mg/kg, po; format: ADME, organism-based; parameters: dose 30 mg/kg, route oral; settings: in vivo
[4] = Cmax in rat at 30 mg/kg, po; format: ADME, organism-based; parameters: dose 30 mg/kg, route oral; settings: in vivo
[5] = Half life in rat at 30 mg/kg, po; format: ADME, organism-based; parameters: dose 30 mg/kg, route oral; settings: in vivo
[6] = AUC in rat at 30 mg/kg, po; format: ADME, organism-based; parameters: dose 30 mg/kg, route oral; settings: plasma
[7] = Oral bioavailability in rat at 30 mg/kg; format: ADME, organism-based; settings: in vivo
[8] = Clearance in rat at 10 mg/kg, iv; format: ADME, organism-based; parameters: dose 10 mg/kg, route intravenous; settings: in vivo
[9] = Volume of distribution at steady state in rat at 10 mg/kg, iv; format: ADME, organism-based; parameters: dose 10 mg/kg, route intravenous; settings: in vivo, read-out: Vdss

T1 sequence (Q16539 whole entry): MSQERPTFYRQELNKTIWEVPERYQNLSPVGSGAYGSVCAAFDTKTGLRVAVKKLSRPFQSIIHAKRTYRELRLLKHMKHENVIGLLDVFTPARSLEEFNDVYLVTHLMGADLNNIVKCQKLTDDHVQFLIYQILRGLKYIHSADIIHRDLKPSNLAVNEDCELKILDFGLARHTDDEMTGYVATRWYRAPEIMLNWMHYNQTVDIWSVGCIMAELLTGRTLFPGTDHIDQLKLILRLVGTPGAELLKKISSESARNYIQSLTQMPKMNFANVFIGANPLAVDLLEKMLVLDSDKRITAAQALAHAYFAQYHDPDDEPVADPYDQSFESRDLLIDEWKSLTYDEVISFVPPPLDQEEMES

Structure (SMILES)	IC50 (THP-1)	IC50 [1]	IC50 [2]	other results
Cc1oc(C(C)(C)C)cc1C(=O)C(=O)Nc1ccc(Nc2ccncn2)c2ccccc12	59 nM	–	–	–
Cc1cccc(-n2nc(C(C)(C)C)cc2C(=O)C(=O)Nc2ccc(OCCN3CCOCC3)c3ccccc23)c1	280 nM	–	–	–
Cn1nc(C(C)(C)C)cc1NC(=O)C(=O)c1ccc(OCCN2CCOCC2)c2ccccc12	440 nM	–	–	–
Cc1oc(C(C)(C)C)cc1C(=O)C(=O)Nc1ccc(-c2ccc(CN3CCOCC3)nc2)c2ccccc12	9 nM	59 nM	20 nM	–
Cc1cccc(-n2nc(C(C)(C)C)cc2/C(=N/O)C(=O)Nc2ccc(OCCN3CCOCC3)c3ccccc23)c1	49 nM	59 nM	100 nM	Tmax [3]: 1.5 h; Cmax [4]: 4000 ng/mL; half-life [5]: 2.9 h; AUC [6]: 26000 ng·h/mL; bioavailability [7]: 54%; clearance [8]: 10.2 mL/min/kg; Vd [9]: 1.5 L/kg
Cn1nc(C(C)(C)C)cc1C(=O)C(=O)Nc1ccc(OCCN2CCOCC2)c2ccccc12	70 nM	14 nM	70 nM	–
Cc1ccc(-n2nc(C(C)(C)C)cc2C(=O)C(=O)Nc2ccc(OCCN3CCOCC3)c3ccccc23)cc1	330 nM	–	–	–

Continued by falling IC50 (THP-1), values first:

IC50 (THP-1)	IC50 [1]	IC50 [2]	Structure (SMILES)	other results
3300 nM	–	–	Cc1ccc(-n2nc(C(C)(C)C)cc2/C(=C/O)C(=O)Nc2ccc(OCCN3CCOCC3)c3ccccc23)cc1	–
850 nM	–	–	Cn1nc(C(C)(C)C)cc1NC(=O)C(=O)c1ccc(-c2ccc(CN3CCOCC3)nc2)c2ccccc12	–
460 nM	–	–	Cc1oc(C(C)(C)C)cc1C(=O)C(=O)Nc1ccc(Nc2ncccn2)c2ccccc12	–
180 nM	–	–	CC(C)(C)c1cc(C(=O)C(=O)Nc2ccc(OCCN3CCOCC3)c3ccccc23)n(-c2ccc(F)c(F)c2)n1	–
61 nM	22 nM	270 nM	Cc1oc(C(C)(C)C)cc1C(=O)C(=O)Nc1ccc(OCCN2CCOCC2)c2ccccc12	–
